Measurements: PMC5117131 (ACS chemical biology, 2016)
“Also recorded” adds a separate entry of the source. Where no end group is shown, it is not given here. TMR = tetramethylrhodamine dye

Key:
[1] = target: phosphorylated Rb^NP–E2F^TMR (Homo sapiens, UniProt P06400, DEL245-267/DEL582-642); experiment: FP EC50 measurement of Rb activation; assay type: biochemical; conditions: 20 nM phosphorylated Rb^NP, 10 nM E2F^TMR, Figure 3b
Rb = conditions: LxCxE-like peptides; cited from earlier work
[2] = target: E2F2 transactivation domain peptide (E2FTMR) 409-428 (UniProt Q14209); experiment: fluorescence polarization, single concentration, 384-well; conditions: reference: unphosphorylated RbNP; sites T356,T373
TMR-E2F2^TD peptide = target: T1, TMR-E2F2^TD peptide (human); experiment: fluorescence polarisation
T1 chain: {TMR}-QDDYLWGLEAGEGISDLFD

[3] = test system: Rb Q736A/K740A docking interface mutant; experiment: E2F^TD binding to Rb with mutated docking interface; assay type: biochemical; conditions: Supporting Information Figure 3

Molecule: MEHQLLCCEVETIRRAY [cyclin D]
- effect in the Rb activation assay (in words) [1]: do not show activity; also recorded: no effect
- affinity for Rb (in words) (Rb): weak affinity

Molecule: Rb (retinoblastoma protein; RbNP construct) 55-787 (from UniProt P06400) Cdk2–CycA phosphorylated RbNP
- other: FP ratio [2]: weaker; reference ~165

Molecule: TDLEASLLSFEKLDRAphosSPDLWPE [LIN52]
- effect in the Rb activation assay (in words) [1]: do not show activity; also recorded: no effect
- affinity for Rb (in words) (Rb): weak affinity

B1: phosphorylated Rb^NP (residues 55-787, Δ245-267, Δ582-642, phosphorylated by Cdk2-CycA) (domain or fragment, UniProt P06400 55-787, looked up)
chain: PDFTALCQKLKIPDHVRERAWLTWEKVSSVDGVLGGYIQKKKELWGICIFIAAVDLDEMSFTFTELQKNIEISVHKFFNLLKEIDTSTKVDNAMSRLLKKYDVLFALFSKLERTCELIYLTQPSSSISTEINSALVLKVSWITFLLAKGEVLQMEDDLVISFQLMLCVLDYFIKLSPPMLLKEPYKTAVIENDTRIIEVLCKEHECNIDEVKNVYFKNFIPFMNSLGLVTSNGLPEVENLSKRYEEIYLKNKDLDARLFLDHDKTLQTDSIDSFETQRTPRKSNLDEEVNVIPPHTPVRTVMNTIQQLMMILNSASDQPSENLISYFNNCTVNPKESILKRVKDIGYIFKEKFAKAVGQGCVEIGSQRYKLGVRLYYRVMESMLKSEEERLSIQNFSKLLNDNIFHMSLLACALEVVMATYSRSTSQNLDSGTDLSFPWILNVLNLKAFDFYKVIESFIKAEGNLTREMIKHLERCEHRIMESLAWLSDSPLFDLIKQSKDREGKSTSLSLFYKKVYRLAYLRLNTLCERLLSEHPELEHIIWTLFQHTLQNEYELMRDRHLDQIMMCSMYGICKVKNIDLKFKIIVTAYKDLPHAVQETFKRVLIKEEEYDSIIVFYNSVFMQRLKTNILQYASTRPPTLSPIPHIPR
modifications: quantitative phosphorylation on two sites (the construct contains the two sites T356 and T373)
- FP ratio (TMR-E2F2^TD peptide): ~60 FP ratio

B2: unphosphorylated Rb^NP (Rb N-terminal domain and pocket domain, residues 55-787, Δ245-267, Δ582-642) (domain or fragment, UniProt P06400 55-787, looked up)
chain: B1 chain
- FP ratio (TMR-E2F2^TD peptide): ~165 FP ratio

B3: E7 protein: full length HPV E7 protein (protein)
chain: MHGDTPTLHEYMLDLQPETTDLYCYEQLNDSSEEEDEIDGPAGQAEPDRAHYNIVTFCCKCDSTLRLCVQSTHVDIRTLEDLLMGTLGIVCPICSQKP
- effect on E2F^TD binding to Rb with mutated docking interface [3]: do not affect E2F^TD binding to Rb
